Results: patent publication US4371534A, “N4-Substituted tetrahydro-1,2,4-oxadiazin-5-one derivatives having anticonvulsive activity and pharmaceutical compositions containing them” (Richter Gedeon Vegyeszeti Gyar RT., priority 1980, dated 1983)
Read-outs that look alike come from different tables or passages of the source.

What was measured:
[1] = test system: mice (tonic, extensor spasm of the lower limbs); test: Maximum electroshock (MES), anticonvulsive activity; format: in vivo, CFLP (LATI) mice; details: Mus musculus, po, 1 h; 20 mg/kg p.o., one hour after administration; corneal electrode 20 mA, 0.2 sec; absence of tonic extensor spasm = protection
Description: The pharmaceutical activity of the new compounds according to the invention was tested by conventional animal tests. Tests were performed on CFLP (LATI) mice of both sexes weighing 18 to 22 g. each, in groups of 10. Test compounds were suspended in a 5% aqueous "Tween 80" solution and the suspension was administered orally, through a probe. When testing anticonvulsive activity 20 mg./kg. doses, while in the tests concerning neurotoxic activity 80 mg/kg. doses were employed. The induced effect was measured one hour after administration by the following methods: (a) Maximum electroshock (MES): According to the method of E. A. Swinyard et al. [J. Pharmacol. 106, 319 (1952)] test animals were shocked by a corneal electrode (20 mA, 0.2 sec.). On the stimulation 100% of the control animals reacted by a tonic, extensor spasm of the lower limbs. Absence of this phenomena was considered a protection due to the treatment.

[2] = test system: mice (pentetrazole-induced clonic and tonic, extensor spasm); test: Inhibition of spasm induced by pentetrazole (PTT); format: in vivo, CFLP (LATI) mice; details: Mus musculus, po, 1 h, 20 mg/kg p.o., 125 mg/kg pentetrazole s.c., one hour
Description: The pharmaceutical activity of the new compounds according to the invention was tested by conventional animal tests. Tests were performed on CFLP (LATI) mice of both sexes weighing 18 to 22 g. each, in groups of 10. Test compounds were suspended in a 5% aqueous "Tween 80" solution and the suspension was administered orally, through a probe. When testing anticonvulsive activity 20 mg./kg. doses, while in the tests concerning neurotoxic activity 80 mg/kg. doses were employed. The induced effect was measured one hour after administration by the following methods: (b) inhibition of spasm induced by pentetrazole (PTT) According to the method of Cr. N. Everett and R. K. Richards [J. Pharmacol. Exp. Therap. 81, 402 (1944)] 125 mg./kg. of pentatrazole (pentamethylene tetrazole) were administrated to the animals subcutaneously. One hour after administration the animals were observed. Absence of the clonic spasm (Kl) and the tonic, extensor spasm of lower limbs (TE) was considered a protection due to the administration of test compounds.

[3] = test system: mice (muscle coordination); test: Neurotoxic activity: muscle coordination (RR) on rotating rod; format: in vivo, CFLP (LATI) mice; details: 80 mg/kg p.o., one hour after administration; animals falling from rotating rod within 120 seconds, percentage of control animals
Description: (§1) The pharmaceutical activity of the new compounds according to the invention was tested by conventional animal tests. Tests were performed on CFLP (LATI) mice of both sexes weighing 18 to 22 g. each, in groups of 10. Test compounds were suspended in a 5% aqueous "Tween 80" solution and the suspension was administered orally, through a probe. When testing anticonvulsive activity 20 mg./kg. doses, while in the tests concerning neurotoxic activity 80 mg/kg. doses were employed. The induced effect was measured one hour after administration by the following methods:
Muscle coordination (RR) on mice
Change of the coordinated muscular movement was tested according to W. J. Kinnard and C. F. Carr [Brit. J. Pharmacol, 121, 354 (1957)], on a rotating rod (diameter: 20 mm., frequency: 12/min.). Normal trained animals are able to remain on the rotating rod for about 120 seconds.

mice = test: Acute toxicity (LD50); format: in vivo; details: p.o., single doses, evaluation after 14 days, probit analysis
Description: as §1
Toxicity of the compounds was examined by administration of various single doses. Evaluation was made 14 days after administration. The LD50 -values were calculated on the basis of the number of animals that died in 14 days by probite analysis, by means of a TPA/101 computer.

[4] = absence of clonic spasm, read-out: PTT Cl
[5] = absence of tonic, extensor spasm of lower limbs, read-out: PTT TE

| Compound | responders at 20 mg/kg [1] [%] | responders at 20 mg/kg [2, 4] [%] | responders at 20 mg/kg [2, 5] [%] | RR (muscle incoordination) [3] [%] | LD50 (mice) [mg/kg] |
| --- | --- | --- | --- | --- | --- |
| CCCCCCN1C(=O)CON(C(C)=O)C1c1ccccc1 (centres unmarked) [Example 14] | 0 | 0 | 40 | 0 |  |
| CC(=O)N1OCC(=O)N(CCl)C1c1ccccc1 (centres unmarked) [Example 7, 2-Acetyl-3-phenyl-4-chloromethyl-tetrahydro-1,2,4-oxadiazin-5-one] | 40 | 0 | 0 | 40 |  |
| O=C1NC(=O)C(c2ccccc2)(c2ccccc2)N1 [diphenylhydantoine, reference compound] | 90 | 0 | 80 | 70 | 279 |
| CCC1(c2ccccc2)NC(=O)N(C)C1=O (centres unmarked) [3-methyl-5-ethyl-5-phenylhydantoine, reference compound] | 10 | 0 | 50 | 50 |  |
| CC(=O)OCN1C(=O)CON(C(C)=O)C1c1ccccc1 (centres unmarked) [Example 6, 2-Acetyl-3-phenyl-4-acetoxymethyl-tetrahydro-1,2,4-oxadiazin-5-one] | 70 | 0 | 60 | 40 |  |
| CC(=O)N1OCC(=O)N(CO)C1c1ccccc1 (centres unmarked) [Example 5, 2-Acetyl-3-phenyl-4-hydroxymethyl-tetrahydro-1,2,4-oxadiazin-5-one] | 60 | 0 | 40 | 20 |  |
| CC(=O)N1OCC(=O)N(C)C1c1ccccc1 (centres unmarked) [Example 10] | 40 | 0 | 20 | 20 |  |
| COc1cc(C(=O)OCN2C(=O)CON(C(C)=O)C2c2ccccc2)cc(OC)c1OC (centres unmarked) [Example 19] | 30 | 0 | 0 | 0 |  |
| CC(=O)N1OCC(=O)N(COC(=O)c2ccccc2)C1c1ccccc1 (centres unmarked) [Example 18] | 40 | 0 | 70 | 40 |  |
| CCN1C(=O)CON(C(C)=O)C1c1ccccc1 (centres unmarked) [Example 4, 2-Acetyl-3-phenyl-4-ethyl-tetrahydro-1,2,4-oxadiazin-5-one] | 0 | 0 | 20 | 20 |  |
